In PubChem BioAssay AID248 (DTP/NCI, 2004):
Inconclusive results and toxic doses are left out. Rule as the data show it: active = T/C of 150% or more; inactive = T/C below 125%.

Tested on: L1210 leukemia ip in BDF1 mice, survival T/C
Test: NCI In Vivo Anticancer Drug Screen. Data for tumor model L1210 Leukemia (intraperitoneal) in B6D2F1 (BDF1) mice
Conditions: endpoint: mean survival time, higher = longer survival
Method in brief: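 Transplanted-tumor mice were given test agent; controls received vehicle only. Survival readings from the two groups were divided (treated over control).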

[1] = dose: 100.0 mg/kg/injection, schedule: Q04DX003 (ip), vehicle: saline with Tween-80
[2] = dose: 200.0 mg/kg/injection, schedule: Q04DX003 (ip), vehicle: saline with Tween-80
[3] = dose: 400.0 mg/kg/injection, schedule: Q04DX003 (ip), vehicle: saline with Tween-80
[4] = dose: 100.0 mg/kg/injection, schedule: Q01DX001 (ip), vehicle: saline
[5] = dose: 200.0 mg/kg/injection, schedule: Q01DX001 (ip), vehicle: saline
[6] = dose: 400.0 mg/kg/injection, schedule: Q01DX001 (ip), vehicle: saline
[7] = dose: 100.0 mg/kg/injection, schedule: Q01DX009 (ip), vehicle: saline
[8] = dose: 200.0 mg/kg/injection, schedule: Q01DX009 (ip), vehicle: saline
[9] = dose: 400.0 mg/kg/injection, schedule: Q01DX009 (ip), vehicle: saline

Measured: T/C

COC(=O)c1ccc([N+](=O)[O-])cc1O
inactive: [1] 101 % of control | [2] 102 % of control | [3] 104 % of control

O=S1(=O)C=CC(Br)C1 (stereo unspecified)
inactive: dose: 100.0 mg/kg/injection, schedule: Q01DX001 (ip), vehicle: saline with Tween-80 100 % of control | dose: 200.0 mg/kg/injection, schedule: Q01DX001 (ip), vehicle: saline with Tween-80 101 % of control

CCCCC(CCCC)=NNc1ccc([N+](=O)[O-])cc1[N+](=O)[O-]
inactive: [4] 96 % of control | [5] 102 % of control | [6] 107 % of control

N#CCCN1CCOCC1
inactive: [7] 93 % of control | dose: 100.0 mg/kg/injection, schedule: Q04DX003 (ip), vehicle: saline 97 % of control | [8] 97 % of control | dose: 200.0 mg/kg/injection, schedule: Q04DX003 (ip), vehicle: saline 95 % of control | [9] 95 % of control | dose: 400.0 mg/kg/injection, schedule: Q04DX003 (ip), vehicle: saline 105 % of control

Cn1c(N)c(N=O)c(=O)n(C)c1=O
inactive: dose: 9.0 mg/kg/injection, schedule: Q01DX009 (ip), vehicle: saline with Tween-80 103 % of control | dose: 18.0 mg/kg/injection, schedule: Q01DX009 (ip), vehicle: saline with Tween-80 103 % of control | dose: 36.0 mg/kg/injection, schedule: Q01DX009 (ip), vehicle: saline with Tween-80 105 % of control | dose: 72.0 mg/kg/injection, schedule: Q01DX009 (ip), vehicle: saline with Tween-80 97 % of control | dose: 90.0 mg/kg/injection, schedule: Q01DX009 (ip), vehicle: saline with Tween-80 93 % of control | dose: 180.0 mg/kg/injection, schedule: Q01DX009 (ip), vehicle: saline with Tween-80 100 % of control | dose: 360.0 mg/kg/injection, schedule: Q01DX009 (ip), vehicle: saline with Tween-80 98 % of control | dose: 360.0 mg/kg/injection, schedule: Q04DX003 (ip), vehicle: saline with Tween-80 97 % of control | dose: 720.0 mg/kg/injection, schedule: Q04DX003 (ip), vehicle: saline with Tween-80 95 % of control

CNc1ccc(Nc2cc(S(=O)(=O)O)c(N)c3c2C(=O)c2ccccc2C3=O)cc1
inactive: [4] 110 % of control | [5] 98 % of control | [6] 93 % of control

Cc1ccc2cc3c(cc(C)c4ccccc43)c3c2c1CC3
inactive: [4] 102 % of control | [5] 96 % of control | [6] 96 % of control

NC(N)=N/N=C/c1ccc2c(c1)CCC2
inactive: dose: 12.5 mg/kg/injection, schedule: Q04DX003 (ip), vehicle: saline 101 % of control | dose: 25.0 mg/kg/injection, schedule: Q04DX003 (ip), vehicle: saline 97 % of control | dose: 50.0 mg/kg/injection, schedule: Q04DX003 (ip), vehicle: saline 97 % of control

O=C(Nc1ccccc1)c1cc(Cl)ccn1
inactive: dose: 100.0 mg/kg/injection, schedule: Q01DX001 (ip), vehicle: carboxymethylcellulose (CMC) 100 % of control | dose: 200.0 mg/kg/injection, schedule: Q01DX001 (ip), vehicle: carboxymethylcellulose (CMC) 97 % of control | dose: 400.0 mg/kg/injection, schedule: Q01DX001 (ip), vehicle: carboxymethylcellulose (CMC) 97 % of control

Nc1ccccc1SC1CC(=O)N(c2ccc(Oc3ccc(Cl)cc3)cc2)C1=O (stereo unspecified)
inactive: dose: 75.0 mg/kg/injection, schedule: Q01DX009 (ip), vehicle: Klucel (hydroxypropylcellulose) (HPC) 87 % of control | dose: 150.0 mg/kg/injection, schedule: Q01DX009 (ip), vehicle: Klucel (hydroxypropylcellulose) (HPC) 98 % of control | dose: 300.0 mg/kg/injection, schedule: Q01DX009 (ip), vehicle: Klucel (hydroxypropylcellulose) (HPC) 92 % of control

CCOC(=O)C1=CN=NC1=[N+]=[N-]
inactive: dose: 10.0 mg/kg/injection, schedule: Q01DX001 (ip), vehicle: saline 96 % of control | dose: 20.0 mg/kg/injection, schedule: Q01DX001 (ip), vehicle: saline 102 % of control

O=C(Nc1ccc(Cl)cc1Cl)Oc1ccc(F)cc1
inactive: dose: 50.0 mg/kg/injection, schedule: Q01DX009 (ip), vehicle: saline with Tween-80 94 % of control | dose: 100.0 mg/kg/injection, schedule: Q01DX009 (ip), vehicle: saline with Tween-80 94 % of control | dose: 200.0 mg/kg/injection, schedule: Q01DX009 (ip), vehicle: saline with Tween-80 102 % of control

COC(=O)[C@H]1[C@H]2C[C@@H]3c4[nH]c5cc(OC)ccc5c4CCN3C[C@H]2C[C@@H](OC(=O)c2cccc(N(C)C)c2)[C@@H]1OC
inactive: dose: 0.78 mg/kg/injection, schedule: Q01DX009 (ip), vehicle: Klucel (hydroxypropylcellulose) (HPC) 102 % of control | dose: 0.78 mg/kg/injection, schedule: Q04DX003 (ip), vehicle: Klucel (hydroxypropylcellulose) (HPC) 94 % of control | dose: 1.56 mg/kg/injection, schedule: Q01DX009 (ip), vehicle: Klucel (hydroxypropylcellulose) (HPC) 102 % of control | dose: 1.56 mg/kg/injection, schedule: Q04DX003 (ip), vehicle: Klucel (hydroxypropylcellulose) (HPC) 107 % of control | dose: 3.12 mg/kg/injection, schedule: Q01DX009 (ip), vehicle: Klucel (hydroxypropylcellulose) (HPC) 96 % of control | dose: 3.12 mg/kg/injection, schedule: Q04DX003 (ip), vehicle: Klucel (hydroxypropylcellulose) (HPC) 104 % of control | dose: 6.25 mg/kg/injection, schedule: Q01DX009 (ip), vehicle: Klucel (hydroxypropylcellulose) (HPC) 93 % of control | dose: 6.25 mg/kg/injection, schedule: Q04DX003 (ip), vehicle: Klucel (hydroxypropylcellulose) (HPC) 104 % of control | dose: 12.5 mg/kg/injection, schedule: Q04DX003 (ip), vehicle: Klucel (hydroxypropylcellulose) (HPC) 100 % of control

O=C1c2ccccc2C2NCCCN12 (stereo unspecified)
inactive: [7] 102 % of control | [8] 100 % of control | [9] 96 % of control

N#Cc1nc2c3ccccc3c(N=NC(N)=S)c-2[nH]c1C#N
inactive: dose: 50.0 mg/kg/injection, schedule: Q04DX002 (ip), vehicle: Klucel (hydroxypropylcellulose) (HPC) 87 % of control | dose: 100.0 mg/kg/injection, schedule: Q04DX002 (ip), vehicle: Klucel (hydroxypropylcellulose) (HPC) 91 % of control | dose: 200.0 mg/kg/injection, schedule: Q04DX002 (ip), vehicle: Klucel (hydroxypropylcellulose) (HPC) 91 % of control

ClCCCCCCCCc1ccccc1
inactive: dose: 100.0 mg/kg/injection, schedule: Q01DX009 (ip), vehicle: saline sonified 105 % of control | dose: 100.0 mg/kg/injection, schedule: Q04DX003 (ip), vehicle: saline sonified 100 % of control | dose: 200.0 mg/kg/injection, schedule: Q01DX009 (ip), vehicle: saline sonified 102 % of control | dose: 200.0 mg/kg/injection, schedule: Q04DX003 (ip), vehicle: saline sonified 102 % of control | dose: 400.0 mg/kg/injection, schedule: Q01DX009 (ip), vehicle: saline sonified 107 % of control | dose: 400.0 mg/kg/injection, schedule: Q04DX003 (ip), vehicle: saline sonified 96 % of control

CCOP(=S)(NN=C1CCC(C(C)(C)C)CC1)OCC (stereo unspecified)
inactive: [4] 103 % of control | [5] 97 % of control

CC(=O)OC(C)(C)/C=C/C(=O)[C@](C)(O)[C@H]1[C@H](O)C[C@@]2(C)[C@@H]3CC=C4[C@@H](CC[C@H](O)C4(C)C)[C@]3(CO)C(=O)C[C@]12C
inactive: dose: 0.57 mg/kg/injection, schedule: Q01DX Z (ip), vehicle: saline 106 % of control | dose: 0.86 mg/kg/injection, schedule: Q01DX Z (ip), vehicle: saline 106 % of control | dose: 1.3 mg/kg/injection, schedule: Q01DX Z (ip), vehicle: saline 112 % of control

COC(=O)CCC(=O)c1cccc(C)c1
inactive: [1] 88 % of control | [2] 99 % of control | [3] 94 % of control

CCOC(=O)c1nnc(SC)nc1SC
inactive: dose: 75.0 mg/kg/injection, schedule: Q01DX001 (ip), vehicle: alcohol 100 % of control | dose: 150.0 mg/kg/injection, schedule: Q01DX001 (ip), vehicle: alcohol 108 % of control

Nc1ccc2c(c1)Cc1ccccc1-2
inactive: [1] 101 % of control | [2] 101 % of control
